Experimental data published in ChEMBL document CHEMBL4680101, “Discovery and Optimization of Allosteric Inhibitors of Mutant Isocitrate Dehydrogenase 1 (R132H IDH1) Displaying Activity in Human Acute Myeloid Leukemia Cells” (J Med Chem, 2016).

Target: Isocitrate dehydrogenase [NADP] cytoplasmic (Homo sapiens, UniProt O75874, R132H)
Test: Inhibition of IDH1 R132H mutant (unknown origin) using alpha-ketoglutarate and NADPH incubated for 60 mins by fluorescence based assay

Isocitrate dehydrogenase [NADP] cytoplasmic, sequence (O75874 2-414 R132H limits assumed): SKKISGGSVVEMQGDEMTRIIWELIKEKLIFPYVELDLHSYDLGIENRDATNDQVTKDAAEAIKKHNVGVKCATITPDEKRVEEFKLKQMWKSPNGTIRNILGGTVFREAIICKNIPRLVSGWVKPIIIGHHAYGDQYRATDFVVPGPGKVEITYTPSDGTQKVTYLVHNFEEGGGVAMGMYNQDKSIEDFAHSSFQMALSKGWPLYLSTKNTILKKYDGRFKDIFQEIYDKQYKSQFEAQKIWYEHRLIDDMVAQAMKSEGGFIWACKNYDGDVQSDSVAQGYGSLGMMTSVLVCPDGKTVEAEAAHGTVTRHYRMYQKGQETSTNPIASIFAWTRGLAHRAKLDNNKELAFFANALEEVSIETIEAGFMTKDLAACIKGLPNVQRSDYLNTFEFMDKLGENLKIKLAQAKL

Compound	IC50 [µM]
O=C(O)C[C@@H]1CCCN(c2ccc(C(=O)NC3CCCCC3)c(OC3CCOCC3)n2)C1	> 50
CC(C)=CCOc1nc(N2CCC[C@@H](CC(=O)O)C2)ccc1C(=O)NC1CCCCC1	14
O=C(O)C[C@@H]1CCCN(c2ccc(C(=O)NC3CCCCC3)c(NCc3ccccc3)n2)C1	> 50
CCC(C)Oc1nc(N2CCC[C@@H](CC(=O)O)C2)ccc1C(=O)NC1CCCCC1 (some centres undefined)	> 50
CC(C)CCOc1nc(N2CC[C@H](CC(=O)O)C2)ccc1C(=O)NC1C2CC3CC1CC(O)(C3)C2 (some centres undefined)	1.2
CC(C)CCOc1nc(N2C[C@@H]3[C@H](C2)[C@H]3C(=O)O)ccc1C(=O)NC1C2CC3CC(C2)CC1C3 (some centres undefined)	> 50
CC(C)CCOc1nc(Nc2coc(C(=O)O)n2)ccc1C(=O)NC1C2CC3CC1CC(O)(C3)C2 (centres undefined)	21
O=C(O)C[C@@H]1CCCN(c2ccc(C(=O)NC3CCCCC3)c(OCCCC(F)(F)F)n2)C1	15
CC(C)CCOc1nc(N2C[C@@H]3[C@H](C2)[C@H]3C(=O)O)ccc1C(=O)Nc1cccc(CO)c1	3.2
CC(C)CCOc1nc(N2C[C@@H]3[C@H](C2)[C@H]3C(=O)O)ccc1C(=O)NC1CCC(O)CC1 (some centres undefined)	8.2
Cc1ccc(COc2nc(N3CCC[C@@H](CC(=O)O)C3)ccc2C(=O)NC2CCCCC2)cc1	> 50
Cc1ccccc1[C@@H](C)Oc1nc(N2CCC[C@@H](CC(=O)O)C2)ccc1C(=O)NC1CCCCC1	5.8
O=C(O)C[C@@H]1CCCN(c2ccc(C(=O)NC3CCCCC3)c(OCc3cccc(F)c3)n2)C1	10
CC(C)CCOc1nc(-c2ccc(C(=O)O)cc2)ccc1C(=O)NC1C2CC3CC1CC(O)(C3)C2 (centres undefined)	3
COc1ccccc1COc1nc(N2CCC[C@@H](CC(=O)O)C2)ccc1C(=O)NC1CCCCC1	13
COCCOc1nc(N2CCC[C@@H](CC(=O)O)C2)ccc1C(=O)NC1CCCCC1	> 50
CCOc1nc(N2CCC[C@@H](CC(=O)O)C2)ccc1C(=O)NC1CCCCC1	> 50
O=C(O)C[C@@H]1CCCN(c2ccc(C(=O)NC3CCCCC3)c(OC3CCCC3)n2)C1	12
CC(C)CCOc1nc(N2C[C@@H]3[C@H](C2)[C@H]3C(=O)O)ccc1C(=O)NC[C@@H](O)c1ccccc1	3.1
O=C(O)C[C@@H]1CCCN(c2ccc(C(=O)NC3CCCCC3)c(NCC3CCCCC3)n2)C1	> 50
CCC(C)COc1nc(N2CCC[C@@H](CC(=O)O)C2)ccc1C(=O)NC1CCCCC1 (some centres undefined)	16

Compound	IC50 [µM]
CC(C)CCOc1nc(N2C[C@@H]3[C@H](C2)[C@H]3C(=O)O)ccc1C(=O)NCc1ccncc1	6.2
CC(C)CCOc1nc(N2C[C@@H]3[C@H](C2)[C@H]3C(=O)O)ccc1C(=O)Nc1cccc(NS(C)(=O)=O)c1	5.4
Cc1ccccc1CNc1nc(N2CCC[C@@H](CC(=O)O)C2)ccc1C(=O)NC1CCCCC1	> 50
CC(C)CCOc1nc(N2C[C@@H]3[C@H](C2)[C@H]3C(=O)O)ccc1C(=O)Nc1ccc(CO)cc1	5.6
CC(C)CCOc1nc(N2C[C@@H]3[C@H](C2)[C@H]3C(=O)O)ccc1C(=O)NC(C)C1C2CC3CC1CC(O)(C3)C2 (some centres undefined)	0.23
Cc1ccccc1COc1nc(N2CCC[C@@H](CC(=O)O)C2)ccc1C(=O)NC1CCCCC1	4.5
CC(C)CCOc1nc(Nc2nc(CC(=O)O)cs2)ccc1C(=O)NC1C2CC3CC1CC(O)(C3)C2 (centres undefined)	> 50
CC(C)CCSc1nc(N2CCC[C@@H](CC(=O)O)C2)ccc1C(=O)NC1CCCCC1	10
O=C(O)C[C@@H]1CCCN(c2ccc(C(=O)NC3CCCCC3)c(OC3CCC3)n2)C1	> 50
CC(C)CCOc1nc(N2CCC(C(=O)O)CC2)ccc1C(=O)NC1C2CC3CC1CC(O)(C3)C2 (centres undefined)	3.4
CC1(C)CC(Oc2nc(N3CCC[C@@H](CC(=O)O)C3)ccc2C(=O)NC2CCCCC2)C1	7.2
CC(C)CCOc1nc(N2C[C@@H]3[C@H](C2)[C@H]3C(=O)O)ccc1C(=O)N[C@H](C)c1ccccc1	5.4
C[C@@H](Oc1nc(N2CCC[C@@H](CC(=O)O)C2)ccc1C(=O)NC1CCCCC1)c1ccccc1	5.9
CC(C)CCOc1nc(N2C[C@@H]3[C@H](C2)[C@H]3C(=O)O)ccc1C(=O)NCCc1ccccc1	3.9
CC(C)CCOc1nc(N2C[C@@H]3[C@H](C2)[C@H]3C(=O)O)ccc1C(=O)Nc1ccc(O)cc1	5
CC(C)CCOc1nc(N2C[C@@H]3[C@H](C2)[C@H]3C(=O)O)ccc1C(=O)NCc1cccnc1	5.6
O=C(O)C[C@@H]1CCCN(c2ccc(C(=O)NC3CCCCC3)c(OCc3ccccc3Cl)n2)C1	7
COC12CC3CC(C1)C(NC(=O)c1ccc(N4C[C@@H]5[C@H](C4)[C@H]5C(=O)O)nc1OCCC(C)C)C(C3)C2 (some centres undefined)	0.27
O=C(O)C[C@@H]1CCCN(c2ccc(C(=O)NC3CCCCC3)c(OCc3ccc(Cl)cc3)n2)C1	7.7
O=C(O)C[C@@H]1CCCN(c2ccc(C(=O)NC3CCCCC3)c(OCC3CC3)n2)C1	30
CC(C)CCOc1nc(N2C[C@@H]3[C@H](C2)[C@H]3C(=O)O)ccc1NC(=O)NC1CCCCC1	> 50

Compound	IC50 [µM]
CC(C)CCOc1nc(N2C[C@@H]3[C@H](C2)[C@H]3C(=O)O)ccc1NS(=O)(=O)C1CCCCC1	8.6
O=C(O)C[C@@H]1CCCN(c2ccc(C(=O)NC3CCCCC3)c(NC3CCCC3)n2)C1	> 50
CC(C)(C)CCOc1nc(N2CCC[C@@H](CC(=O)O)C2)ccc1C(=O)NC1CCCCC1	7.6
CC(C)CCOc1nc(N2C[C@@H]3[C@H](C2)[C@H]3C(=O)O)ccc1NC(=O)C1CCCCC1	> 50
CCOC(=O)[C@H]1[C@@H]2CN(c3ccc(C(=O)NC4C5CC6CC4CC(O)(C6)C5)c(OCCC(C)C)n3)C[C@@H]21 (some centres undefined)	13.5
O=C(O)C[C@@H]1CCCN(c2ccc(C(=O)NC3CCCCC3)c(OCc3cccc(Cl)c3)n2)C1	9.9
CCCCOc1nc(N2CCC[C@@H](CC(=O)O)C2)ccc1C(=O)NC1CCCCC1	12
O=C(O)C[C@@H]1CCCN(c2ccc(C(=O)NC3CCCCC3)c(OC3CCCCC3)n2)C1	12
O=C(O)C[C@@H]1CCCN(c2ccc(C(=O)NC3C4CC5CC3CC(O)(C5)C4)c(OCc3ccccc3)n2)C1 (some centres undefined)	2.3
COc1cccc(COc2nc(N3CCC[C@@H](CC(=O)O)C3)ccc2C(=O)NC2CCCCC2)c1	12
O=C(O)C[C@@H]1CCCN(c2ccc(C(=O)NC3CCCCC3)c(SCc3ccccc3)n2)C1	39
CC(C)CCOc1nc(N2C[C@@H]3[C@H](C2)[C@H]3C(=O)O)ccc1C(=O)NCc1cccc(Cl)c1	6.5
CC(C)CCOc1nc(N2C[C@@H]3[C@H](C2)[C@H]3C(=O)O)ccc1C(=O)Nc1cccc(O)c1	2.9
CC(C)CCOc1nc(Nc2csc(C(=O)O)n2)ccc1C(=O)NC1C2CC3CC1CC(O)(C3)C2 (centres undefined)	0.81
CC(C)COc1nc(N2CCC[C@@H](CC(=O)O)C2)ccc1C(=O)NC1CCCCC1	26
O=C(NC1C2CC3CC1CC(O)(C3)C2)c1ccc(N2C[C@@H]3[C@H](C2)[C@H]3C(=O)O)nc1OCc1ccccc1Cl (some centres undefined)	3.2
Cc1ccccc1CSc1nc(N2CCC[C@@H](CC(=O)O)C2)ccc1C(=O)NC1CCCCC1	> 50
COc1ccc(COc2nc(N3CCC[C@@H](CC(=O)O)C3)ccc2C(=O)NC2CCCCC2)cc1	> 50
CC(C)CCOc1nc(N2C[C@@H]3[C@H](C2)[C@H]3C(=O)O)ccc1C(=O)NC[C@H](O)c1ccccc1	3
O=C(O)C[C@@H]1CCCN(c2ccc(C(=O)NC3CCCCC3)c(OCCC3CC3)n2)C1	8
CC(C)CCOc1nc(N2C[C@@H]3[C@H](C2)[C@H]3C(=O)O)ccc1C(=O)Nc1cccc(B(O)O)c1	4.6

Compound	IC50 [µM]
CC1CC1COc1nc(N2CCC[C@@H](CC(=O)O)C2)ccc1C(=O)NC1CCCCC1 (some centres undefined)	14
Cc1cccc(COc2nc(N3CCC[C@@H](CC(=O)O)C3)ccc2C(=O)NC2CCCCC2)c1	4.6
O=C(NC1C2CC3CC1CC(O)(C3)C2)c1ccc(N2C[C@@H]3[C@H](C2)[C@H]3C(=O)O)nc1OCc1ccccc1 (some centres undefined)	27
O=C(O)C[C@@H]1CCCN(c2ccc(C(=O)NC3C4CC5CC3CC(O)(C5)C4)c(OCc3ccccc3Cl)n2)C1 (some centres undefined)	2.3
CC(C)CCOc1nc(Nc2cccc(C(=O)O)c2)ccc1C(=O)NC1C2CC3CC1CC(O)(C3)C2 (centres undefined)	11
CC(C)CCOc1nc(N2C[C@@H]3[C@H](C2)[C@H]3C(=O)O)ccc1C(=O)NCc1ccccc1	9.4
CC(C)CCOc1nc(N2C[C@@H]3[C@H](C2)[C@H]3C(=O)O)ccc1C(=O)Nc1cccc(C(N)=O)c1	6
CC(C)CCOc1nc(N2C[C@@H]3[C@H](C2)[C@H]3C(=O)O)ccc1C(=O)NCc1ccc(Cl)cc1	17
O=C(O)C[C@@H]1CCCN(c2ccc(C(=O)NC3CCCCC3)c(SCc3ccccc3F)n2)C1	21
CC(C)CCOc1nc(N2CCC[C@@H](CC(=O)O)C2)ccc1C(=O)NC1CCCCC1	6.4
CC(C)CCOc1nc(N2C[C@@H]3[C@H](C2)[C@H]3C(=O)O)ccc1C(=O)NCc1ccc(O)cc1	6.6
CN(C)CCOc1nc(N2CCC[C@@H](CC(=O)O)C2)ccc1C(=O)NC1CCCCC1	> 50
CC(C)CCOc1nc(N2C[C@@H]3[C@H](C2)[C@H]3C(=O)O)ccc1C(=O)N[C@@H](C)c1ccccc1	4.4
O=C(O)C[C@@H]1CCCN(c2ccc(C(=O)NC3CCCCC3)c(OCCc3ccccc3)n2)C1	43
Cc1ccccc1COc1nc(N2C[C@@H]3[C@H](C2)[C@H]3C(=O)O)ccc1C(=O)NC1C2CC3CC1CC(O)(C3)C2 (some centres undefined)	4.5
CC(C)CCOc1nc(N2C[C@@H]3[C@H](C2)[C@H]3C(=O)O)ccc1C(=O)NC1CCCCCC1	3.9
CC(C)CCOc1nc(N2C[C@@H]3[C@H](C2)[C@H]3C(=O)O)ccc1C(=O)N[C@H](CO)c1ccccc1	12
CC(C)CCOc1nc(N2C[C@@H]3[C@H](C2)[C@H]3C(=O)O)ccc1C(=O)N[C@@H](CO)c1ccccc1	5.6
CC(Oc1nc(N2CCC[C@@H](CC(=O)O)C2)ccc1C(=O)NC1CCCCC1)C1CC1 (some centres undefined)	20
CC(C)CCOc1nc(N2C[C@@H]3[C@H](C2)[C@H]3C(=O)O)ccc1C(=O)N(C)C1CCCCC1	17
CCC(C)(C)Oc1nc(N2CCC[C@@H](CC(=O)O)C2)ccc1C(=O)NC1CCCCC1	14
